Counter-ions that a name gives are not always drawn. The source made the active and inactive calls. The rule behind the calls is not given here.
Columns and labels:
K562 [1] = assay: Cytotoxicity against human K562 cells assessed as reduction in cell viability after 48 hrs by MTT assay; type: cell-based; details: K562, 48 h
K562/A02 [2] = assay: Cytotoxicity against human K562/A02 cells overexpressing P-gp assessed as reduction in cell viability after 48 hrs by MTT assay; type: ADME, cell-based; details: K562/A02, 48 h
Homo sapiens [3] = species: Homo sapiens; assay: Inhibition of P-gp in human K562/A02 cells assessed as potentiation of adriamycin-induced cytotoxicity by measuring fold reduction in adriamycin IC50 at 5 uM after 48 hrs by MTT assay relative to adriamycin alone; type: cell-based
Homo sapiens [4] = species: Homo sapiens; assay: Inhibition of P-gp in human K562/A02 cells assessed as potentiation of adriamycin-induced cytotoxicity by measuring fold reduction in adriamycin IC50 at 5 uM preincubated for 24 hrs followed by adriamycin addition measured after 48 hrs by MTT assay relative to adriamycin alone; type: cell-based
Homo sapiens [5] = species: Homo sapiens; assay: (§1) Inhibition of P-gp in human K562/A02 cells assessed as potentiation of adriamycin-induced cytotoxicity by measuring fold reduction in adriamycin IC50 at 5 uM preincubated for 24 hrs followed by compound wash out and subsequent addition of adriamycin after 12 hrs measured after 48 hrs by MTT assay relative to adriamycin alone; type: cell-based
Homo sapiens [6] = species: Homo sapiens; assay: as §1, with “24” for “12”; type: cell-based
Homo sapiens [7] = species: Homo sapiens; assay: as §1, with “6” for “12”; type: cell-based
Homo sapiens [8] = species: Homo sapiens; assay: as §1, with “adriamycin” for “adriamycin after 12 hrs”; type: cell-based
K562 [9] = assay: Inhibition of P-gp in human K562 cells assessed as Rh123 efflux at 5 uM after 90 mins by fluorospectro photometric analysis (reference value: >70%); type: cell-based; design: scale not given: the % may be the effect or the level left
Homo sapiens [10] = species: Homo sapiens; assay: (§2) Inhibition of P-gp in human K562/A02 cells assessed as potentiation of adriamycin-induced cytotoxicity after 48 hrs by MTT assay; type: cell-based
[11] = as §2; type: cell-based; details: K562/A02, 48 h
K562 [12] = assay: Inhibition of P-gp in human K562 cells assessed as increase in Rh123 accumulation at 5 uM after 2.5 hrs by flow cytometry method; type: cell-based
Homo sapiens [13] = species: Homo sapiens; assay: Inhibition of P-gp in human K562/A02 cells assessed as potentiation of adriamycin-induced cytotoxicity by measuring fold reduction in adriamycin IC50 at 0.025 uM after 48 hrs by MTT assay relative to adriamycin alone; type: cell-based
K562/A02 [14] = assay: Inhibition of P-gp in human K562/A02 cells assessed as increase in adriamycin accumulation after 2.5 hrs by flow cytometry method; type: cell-based
Homo sapiens [15] = species: Homo sapiens; assay: Inhibition of P-gp in human K562/A02 cells assessed as potentiation of adriamycin-induced cytotoxicity by measuring fold reduction in adriamycin IC50 at 0.5 uM after 48 hrs by MTT assay relative to adriamycin alone; type: cell-based
Homo sapiens [16] = species: Homo sapiens; assay: Inhibition of P-gp in human K562/A02 cells assessed as potentiation of adriamycin-induced cytotoxicity by measuring fold reduction in adriamycin IC50 at 0.25 uM after 48 hrs by MTT assay relative to adriamycin alone; type: cell-based
Homo sapiens [17] = species: Homo sapiens; assay: Inhibition of P-gp in human K562/A02 cells assessed as potentiation of adriamycin-induced cytotoxicity by measuring fold reduction in adriamycin IC50 at 0.1 uM after 48 hrs by MTT assay relative to adriamycin alone; type: cell-based
Homo sapiens [18] = species: Homo sapiens; assay: Inhibition of P-gp in human K562/A02 cells assessed as potentiation of adriamycin-induced cytotoxicity by measuring fold reduction in adriamycin IC50 at 1 uM after 48 hrs by MTT assay relative to adriamycin alone; type: cell-based
Homo sapiens [19] = species: Homo sapiens; assay: Inhibition of P-gp in human K562/A02 cells assessed as potentiation of adriamycin-induced cytotoxicity by measuring fold reduction in adriamycin IC50 at 2.5 uM after 48 hrs by MTT assay relative to adriamycin alone; type: cell-based
Homo sapiens [20] = species: Homo sapiens; assay: Inhibition of P-gp in human K562/A02 cells assessed as potentiation of adriamycin-induced cytotoxicity by measuring fold reduction in adriamycin IC50 at 0.05 uM after 48 hrs by MTT assay relative to adriamycin alone; type: cell-based
K562/A02 [21] = details: Homo sapiens, 5 uM
Description: Inhibition of P-gp in human K562/A02 cells assessed as increase in adriamycin accumulation at 5 uM after 2.5 hrs by flow cytometry method

| Structure (SMILES) | IC50 (K562 [1]) [µM] | IC50 (K562/A02 [2]; read-out: IC50) [µM] | Ratio IC50 (Homo sapiens [3]) | other results |
| --- | --- | --- | --- | --- |
| COc1ccc(NC(=O)c2ccccc2NCc2cn(CCN3CCc4cc(OC)c(OC)cc4C3)nn2)cc1 | 58.4 | > 100 |  |  |
| COc1cc2c(cc1OC)CN(CCn1cc(CNc3ccccc3C(=O)Nc3ccc(Cl)cc3)nn1)CC2 | 43.4 | > 100 | 2.6 |  |
| COc1cc2c(cc1OC)CN(CCn1cc(CNc3ccccc3C(=O)Nc3ccccc3)nn1)CC2 | 34.3 | > 100 | 2.1 |  |
| COc1cc2c(cc1OC)CN(CCn1cc(CNc3ccccc3C(=O)NCC(C)C)nn1)CC2 | 61.5 | > 100 | 1.7 |  |
| COc1cccc2c1C(=O)c1c(O)c3c(c(O)c1C2=O)C[C@@](O)(C(=O)CO)C[C@@H]3O[C@H]1C[C@H](N)[C@H](O)[C@H](C)O1 [DOXORUBICIN HYDROCHLORIDE] | 0.97 | 65.6 |  |  |
| CCCCc1ccc(NC(=O)c2ccccc2NCc2cn(CCN3CCc4cc(OC)c(OC)cc4C3)nn2)cc1 | 75.7 | > 100 | 15.5 |  |
| COc1cc2c(cc1OC)CN(CCn1cc(CNc3ccccc3C(=O)Nc3ccc4c(c3)OCO4)nn1)CC2 | 41.5 | > 100 | 4.6 |  |
| COc1cc2c(cc1OC)CN(CCc1ccc(NC(=O)c3cc(OC)c(OC)cc3NC(=O)c3cnc4ccccc4c3)cc1)CC2 |  |  | 49.4 | Ratio IC50 (Homo sapiens [4]): 32.1; Ratio IC50 (Homo sapiens [5]): 6.2; Ratio IC50 (Homo sapiens [6]): 3.6; Ratio IC50 (Homo sapiens [7]): 10.3; Ratio IC50 (Homo sapiens [8]): 17 |
| COc1ccc(CCNC(=O)c2ccccc2NCc2cn(CCN3CCc4cc(OC)c(OC)cc4C3)nn2)cc1OC | 61.1 | > 100 | 1.2 |  |
| COc1cc2c(cc1OC)CN(CCn1cc(CNc3ccccc3C(=O)Nc3ccc(F)cc3)nn1)CC2 | 61 | > 100 | 3.7 |  |
| COc1cc2c(cc1OC)CN(CCn1cc(CNc3ccccc3C(=O)Nc3ccc(C(C)(C)C)cc3)nn1)CC2 | 45.4 | > 100 | 34.2 to 39 | Activity (K562 [9]): < 40%; inhibition (Homo sapiens [10]): Dose-dependent effect; EC50 [11]: 0.253 µM; inhibition (K562 [12]): Active; Ratio IC50 (Homo sapiens [4]): 40.7; Ratio IC50 (Homo sapiens [5]): 5; Ratio IC50 (Homo sapiens [6]): 3; Ratio IC50 (Homo sapiens [13]): 1.2; inhibition (K562/A02 [14]): Dose-dependent effect; Ratio IC50 (Homo sapiens [15]): 3.8; Ratio IC50 (Homo sapiens [7]): 8.1; Ratio IC50 (Homo sapiens [8]): 11.6; Ratio IC50 (Homo sapiens [16]): 2.3; Ratio IC50 (Homo sapiens [17]): 1.3; Ratio IC50 (Homo sapiens [18]): 7.3; Ratio IC50 (Homo sapiens [19]): 13.1; Ratio IC50 (Homo sapiens [20]): 1.2 |
| COc1cc2c(cc1OC)CN(CCn1cc(CNc3ccccc3C(=O)Nc3ccc(F)c(F)c3)nn1)CC2 | 87.9 | > 100 | 3.7 |  |
| COc1ccc(CCN(C)CCCC(C#N)(c2ccc(OC)c(OC)c2)C(C)C)cc1OC (stereo unspecified) [VERAPAMIL] | 82.2 |  | 3.3 | inhibition (K562 [12]): Active; inhibition (K562/A02 [21]): Active; Ratio IC50 (Homo sapiens [4]): 4.8; IC50 (K562/A02 [2]): 67.2 µM |
| COc1ccc(NC(=O)c2ccccc2NCc2cn(CCN3CCc4cc(OC)c(OC)cc4C3)nn2)cc1OC | 60.5 | > 100 | 1.3 |  |
| COc1cc2c(cc1OC)CN(CCn1cc(CNc3ccccc3C(=O)NCc3ccccc3)nn1)CC2 | 49.6 | > 100 | 4.5 |  |
| COc1cc2c(cc1OC)CN(CCn1cc(CNc3ccccc3C(=O)Nc3cc(OC)c(OC)c(OC)c3)nn1)CC2 | 43.1 | > 100 | 1.3 |  |
| COc1cc2c(cc1OC)CN(CCn1cc(CNc3ccccc3C(=O)NCCc3ccccc3)nn1)CC2 | 42.2 | > 100 | 4.3 |  |
| COc1cc2c(cc1OC)CN(CCn1cc(CNc3ccccc3C(=O)NC3CCOCC3)nn1)CC2 | 59.2 | > 100 | 8.2 |  |
| COc1cc2c(cc1OC)CN(CCn1cc(CNc3ccccc3C(=O)Nc3ccc([N+](=O)[O-])cc3)nn1)CC2 | 43.8 | > 100 | 2.6 |  |
| COc1cc2c(cc1OC)CN(CCn1cc(CNc3ccccc3C(=O)Nc3ccc(OC(F)(F)F)cc3)nn1)CC2 | 90.2 | > 100 | 21.4 |  |

— ChEMBL document CHEMBL4219209, “Design, synthesis and biological evaluation of novel tetrahydroisoquinoline derivatives as P-glycoprotein-mediated multidrug resistance inhibitors” (Bioorg Med Chem, 2018)
